How the values were obtained:
[1] = target: 72 kDa type IV collagenase (Homo sapiens, UniProt P08253); experiment: Inhibition of human MMP-2
[2] = target: Matrix metalloproteinase-9 (Homo sapiens, UniProt P14780); experiment: Inhibition of human MMP-9
[3] = target: Collagenase 3 (Homo sapiens, UniProt P45452); experiment: Inhibition of human MMP-13
[4] = target: T1, Matrilysin (Homo sapiens, UniProt P09237); experiment: Inhibition of human MMP-7
T1 sequence (P09237 whole entry): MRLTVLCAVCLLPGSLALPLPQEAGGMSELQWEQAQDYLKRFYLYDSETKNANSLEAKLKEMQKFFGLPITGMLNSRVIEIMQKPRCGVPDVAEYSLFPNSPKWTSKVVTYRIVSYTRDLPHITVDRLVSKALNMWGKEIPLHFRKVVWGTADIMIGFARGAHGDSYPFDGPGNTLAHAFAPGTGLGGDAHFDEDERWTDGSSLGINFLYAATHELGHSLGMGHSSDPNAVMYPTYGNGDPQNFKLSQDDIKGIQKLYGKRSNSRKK

[5] = target: Neutrophil collagenase (Homo sapiens, UniProt P22894); experiment: Inhibition of human MMP-8
[6] = target: T2, Interstitial collagenase (Homo sapiens, UniProt P03956); experiment: Inhibition of human MMP-1
T2 sequence (P03956 whole entry): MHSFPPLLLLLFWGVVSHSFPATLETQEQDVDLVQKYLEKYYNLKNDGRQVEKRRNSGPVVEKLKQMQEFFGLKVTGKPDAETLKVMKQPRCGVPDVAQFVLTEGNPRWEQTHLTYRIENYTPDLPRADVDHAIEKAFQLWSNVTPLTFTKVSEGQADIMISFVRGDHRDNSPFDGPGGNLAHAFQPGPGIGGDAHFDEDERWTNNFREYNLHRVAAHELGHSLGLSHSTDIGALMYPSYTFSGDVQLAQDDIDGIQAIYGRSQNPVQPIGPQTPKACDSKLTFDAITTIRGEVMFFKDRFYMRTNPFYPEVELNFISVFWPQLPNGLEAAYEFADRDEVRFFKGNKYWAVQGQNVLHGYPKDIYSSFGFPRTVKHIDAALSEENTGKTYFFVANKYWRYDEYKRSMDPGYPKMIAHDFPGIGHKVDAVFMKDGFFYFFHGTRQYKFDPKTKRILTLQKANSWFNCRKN

[7] = target: Stromelysin-1 (Homo sapiens, UniProt P08254); experiment: Inhibition of human MMP-3
[8] = target: Matrix metalloproteinase-14 (Homo sapiens, UniProt P50281); experiment: Inhibition of human MMP-14
[9] = Half life in rat; format: ADME, organism-based; details: in vivo
[10] = Bioavailability in rat; format: ADME, organism-based; details: in vivo
[11] = Cmax in rat; format: ADME, organism-based; details: in vivo
[12] = Clearance in rat; format: ADME, organism-based; details: in vivo

Sequence of 72 kDa type IV collagenase (P08253 whole entry): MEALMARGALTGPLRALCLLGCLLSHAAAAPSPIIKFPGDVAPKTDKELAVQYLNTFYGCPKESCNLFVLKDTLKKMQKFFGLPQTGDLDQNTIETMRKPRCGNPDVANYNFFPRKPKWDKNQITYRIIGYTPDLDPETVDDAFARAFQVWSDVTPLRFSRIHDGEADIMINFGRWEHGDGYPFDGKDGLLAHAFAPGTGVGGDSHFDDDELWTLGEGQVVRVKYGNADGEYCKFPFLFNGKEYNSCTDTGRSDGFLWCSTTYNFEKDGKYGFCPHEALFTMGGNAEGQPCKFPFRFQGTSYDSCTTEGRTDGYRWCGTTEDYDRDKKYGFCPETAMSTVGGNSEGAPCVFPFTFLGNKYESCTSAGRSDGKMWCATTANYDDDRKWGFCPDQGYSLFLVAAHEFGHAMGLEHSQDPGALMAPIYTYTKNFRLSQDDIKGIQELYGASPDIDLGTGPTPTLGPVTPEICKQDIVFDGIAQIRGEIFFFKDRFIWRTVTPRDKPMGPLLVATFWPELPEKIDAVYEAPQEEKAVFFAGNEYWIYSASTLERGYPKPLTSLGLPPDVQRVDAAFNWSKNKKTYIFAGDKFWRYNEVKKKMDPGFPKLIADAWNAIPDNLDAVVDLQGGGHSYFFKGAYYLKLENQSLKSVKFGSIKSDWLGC
Sequence of Stromelysin-1 (P08254 whole entry): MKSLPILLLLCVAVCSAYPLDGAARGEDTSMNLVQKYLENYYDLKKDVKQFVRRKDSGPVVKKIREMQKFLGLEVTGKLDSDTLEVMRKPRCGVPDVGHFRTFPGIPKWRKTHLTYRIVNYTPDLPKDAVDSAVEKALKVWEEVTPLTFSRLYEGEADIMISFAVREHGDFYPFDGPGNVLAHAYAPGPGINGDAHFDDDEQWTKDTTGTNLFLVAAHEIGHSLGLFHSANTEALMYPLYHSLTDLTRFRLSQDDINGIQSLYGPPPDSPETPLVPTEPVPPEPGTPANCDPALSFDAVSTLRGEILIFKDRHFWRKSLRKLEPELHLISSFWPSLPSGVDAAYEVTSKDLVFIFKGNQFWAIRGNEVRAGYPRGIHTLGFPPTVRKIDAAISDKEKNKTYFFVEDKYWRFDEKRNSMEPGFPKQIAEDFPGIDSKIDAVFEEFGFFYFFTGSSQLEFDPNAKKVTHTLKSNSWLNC
Sequence of Neutrophil collagenase (P22894 whole entry): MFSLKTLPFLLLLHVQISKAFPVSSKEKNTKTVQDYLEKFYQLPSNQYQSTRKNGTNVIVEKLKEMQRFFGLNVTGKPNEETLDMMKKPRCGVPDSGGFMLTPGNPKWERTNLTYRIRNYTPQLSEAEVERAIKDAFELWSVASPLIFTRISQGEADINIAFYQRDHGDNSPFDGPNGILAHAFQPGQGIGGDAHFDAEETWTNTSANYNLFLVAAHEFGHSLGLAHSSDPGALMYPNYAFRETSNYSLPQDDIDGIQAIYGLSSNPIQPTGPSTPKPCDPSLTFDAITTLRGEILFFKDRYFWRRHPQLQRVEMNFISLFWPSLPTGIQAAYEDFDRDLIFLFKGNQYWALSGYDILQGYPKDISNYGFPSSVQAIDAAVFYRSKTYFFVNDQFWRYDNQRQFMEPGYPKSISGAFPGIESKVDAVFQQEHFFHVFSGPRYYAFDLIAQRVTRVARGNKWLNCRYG
Sequence of Matrix metalloproteinase-9 (P14780 whole entry): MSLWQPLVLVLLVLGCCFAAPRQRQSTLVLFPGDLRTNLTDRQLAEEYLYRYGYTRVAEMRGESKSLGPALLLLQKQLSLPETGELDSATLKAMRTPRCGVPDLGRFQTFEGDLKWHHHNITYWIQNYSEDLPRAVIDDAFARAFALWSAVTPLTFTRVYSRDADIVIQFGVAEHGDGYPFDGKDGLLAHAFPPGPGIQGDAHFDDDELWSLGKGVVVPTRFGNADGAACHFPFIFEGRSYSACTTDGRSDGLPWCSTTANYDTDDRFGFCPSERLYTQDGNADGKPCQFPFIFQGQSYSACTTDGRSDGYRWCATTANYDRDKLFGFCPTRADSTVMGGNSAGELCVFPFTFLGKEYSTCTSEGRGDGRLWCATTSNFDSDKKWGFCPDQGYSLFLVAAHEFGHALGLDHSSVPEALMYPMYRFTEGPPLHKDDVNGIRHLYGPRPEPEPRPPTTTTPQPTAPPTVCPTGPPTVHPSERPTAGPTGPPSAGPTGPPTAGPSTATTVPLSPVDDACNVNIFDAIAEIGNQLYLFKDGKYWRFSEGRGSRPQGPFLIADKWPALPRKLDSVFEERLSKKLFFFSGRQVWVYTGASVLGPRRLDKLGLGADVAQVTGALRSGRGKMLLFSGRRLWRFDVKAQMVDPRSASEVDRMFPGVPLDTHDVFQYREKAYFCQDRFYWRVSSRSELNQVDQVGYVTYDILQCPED

SMILES | Ki [1] [nM] | Ki [2] [nM] | Ki [3] [nM] | Ki [4] [nM] | Ki [5] [nM] | Ki [6] [nM] | Ki [7] [nM] | Ki [8] [nM] | IC50 [1] [nM] | IC50 [2] [nM] | IC50 [3] [nM] | IC50 [4] [nM] | IC50 [5] [nM] | half-life [9] [h] | bioavailability [10] [%] | IC50 [7] [nM] | Cmax [11] [ng/mL] | clearance [12] [mL/min/kg]
O=C(NO)C1(S(=O)(=O)c2ccc(OCCCn3cncc3-c3ccc(OC(F)(F)F)cc3)cc2)CCOCC1 | 9200 | > 10000 | 3.7 | > 10000 | 140 | > 10000 | 130 | > 10000 | – | – | – | – | – | – | – | – | – | –
COc1ccc(C(=O)N2CCN(c3ccc(S(=O)(=O)C4(C(=O)NO)CCOCC4)cc3)CC2)cc1 | – | – | – | – | – | > 10000 | – | > 10000 | 1300 | 1200 | 0.7 | > 10000 | 1200 | 1.2 | 14 | 90 | 4200 | –
CCN1CCC(C(=O)NO)(S(=O)(=O)c2ccc(OCCCc3nc(-c4ccc(OC(F)(F)F)cc4)no3)cc2)CC1 | 410 | 370 | 2 | > 10000 | 260 | – | 37 | – | – | – | – | – | – | 2.4 | 28 | – | 2200 | 19
O=C(NO)C1(S(=O)(=O)c2ccc(OCCCc3nc(-c4ccc(OC(F)(F)F)cc4)no3)cc2)CCOCC1 | – | – | – | > 10000 | 180 | – | 31 | – | – | – | – | – | – | 1.4 | 22 | – | 240 | 14
COCCN1CCC(C(=O)NO)(S(=O)(=O)c2ccc(Oc3ccc(OC(F)(F)F)cc3)cc2)CC1 | – | – | – | 7000 | – | > 10000 | – | – | < 0.1 | – | < 0.1 | – | – | 2.9 | 68 | – | 21900 | –
O=C(NO)C1(S(=O)(=O)c2ccc(OCCCn3cnc(-c4ccc(OC(F)(F)F)cc4)c3)cc2)CCOCC1 | 530 | 1800 | 1.7 | 6000 | 74 | > 10000 | 59 | > 10000 | – | – | – | – | – | – | – | – | – | –
COCCN1CCC(C(=O)NO)(S(=O)(=O)c2ccc(OCCCn3nnc(-c4ccc(OC(F)(F)F)cc4)n3)cc2)CC1 | – | – | 0.13 | 8600 | 8000 | > 10000 | 8.7 | > 10000 | – | – | – | – | – | 1.3 | 26 | – | 1400 | –
COc1ccc(C(=O)NCCCOc2ccc(S(=O)(=O)C3(C(=O)NO)CCOCC3)cc2)cc1 | 550 | > 10000 | 1.6 | – | 900 | > 10000 | 900 | > 10000 | – | – | – | – | – | 0.59 | – | – | 0.02 | –

Further lines, results first:

Ki [1] [nM] | Ki [2] [nM] | Ki [3] [nM] | Ki [4] [nM] | Ki [5] [nM] | Ki [6] [nM] | Ki [7] [nM] | Ki [8] [nM] | IC50 [1] [nM] | IC50 [2] [nM] | IC50 [3] [nM] | IC50 [4] [nM] | IC50 [5] [nM] | half-life [9] [h] | bioavailability [10] [%] | IC50 [7] [nM] | Cmax [11] [ng/mL] | clearance [12] [mL/min/kg] | SMILES
400 | 2400 | 0.6 | 970 | 250 | > 10000 | 3 | > 10000 | – | – | – | – | – | 4.8 | 5 | – | 3000 | 63 | Cc1ccc(-c2nnnn2CCCOc2ccc(S(=O)(=O)C3(C(=O)NO)CCOCC3)cc2)nc1
430 | 1700 | 1.2 | 7100 | 72 | > 10000 | 9.9 | > 10000 | – | – | – | – | – | 4 | 7.3 | – | 3500 | 42 | O=C(NO)C1(S(=O)(=O)c2ccc(OCCCc3nnnn3-c3ccc(OC(F)(F)F)cc3)cc2)CCOCC1
– | – | – | – | – | 5600 | – | > 10000 | – | 1100 | – | – | 190 | – | – | 39 | – | – | COc1ccc(-c2nnn(CCCOc3ccc(S(=O)(=O)C4(C(=O)NO)CCOCC4)cc3)n2)cc1
410 | 1200 | 0.66 | > 10000 | 170 | > 10000 | 28 | > 10000 | – | – | – | – | – | 2.4 | 32 | – | 61 | 12 | O=C(NO)C1(S(=O)(=O)c2ccc(OCCCn3nnc(-c4ccc(OC(F)(F)F)cc4)n3)cc2)CCOCC1
110 | 370 | 0.66 | 3000 | 240 | > 10000 | 44 | > 10000 | – | – | – | – | – | 2 | 1.7 | – | 3500 | 46 | Cc1ccc(-c2nnn(CCCOc3ccc(S(=O)(=O)C4(C(=O)NO)CCOCC4)cc3)n2)nc1

Reference: ChEMBL document CHEMBL1770140, “MMP-13 selective α-sulfone hydroxamates: a survey of P1' heterocyclic amide isosteres” (Bioorg Med Chem Lett, 2011)
